Laboratory results: patent US10675239B2, “Vegetable extract to prevent and treat hair loss” (GIULIANI S.P.A., priority 2017, dated 2020)

Tests used:
Format in all cases: cell-based, mouse
[1] = system: ROS production in the BALB3T3 murine fibroblast cell line; test: ROS intracellular production (DCFH-DA assay)-BALB3T3; details: 25 μM, 16 h pretreatment, then 1 mM H2O2 90 min; ctr + H2O2 = 100
Experimental: Study of the Effects of Galeopsis segetum and Galeopsis tetrahit and on ROS Production Using a DCFH-DA-BALB3T3 Assay
The ROS production in the BALB3T3 murine fibroblast cell line was determined by spectrophotometer using the 2,7-dichlorofluorescein-diacetate (DCFH-DA) assay, as described by Tobi et al. (Tobi et al., 2000).
DCFH-DA is a non-fluorescent compound in lipophilic form, able to spread through the cell membrane. Once inside the cell, it is deacetylated by the intracellular esterases to reduced 2,7-dichlorofluorescein (DCFH), which is also non-fluorescent. DCFH, unable to cross again the cell membrane, eventually ends up accumulating in the cells (Curtin et al., 2002). The intracellular ROS reaction leads to the oxidation of 2.7-dichlorofluorescein (DCF) DCFH, a highly fluorescent compound. This fluorescence intensity can be detected with a fluorimeter, allowing estimating the amount of ROS produced in the cells.
[…]
Subsequently, the lysates were transferred in a 96-well black plate and the fluorescence of DCF was read spectrofluorimetrically using a FluoroskanAscent FL Microplate Fluorescence Reader (Thermo Fisher ScientificInc., Waltham, Mass., USA), with excitation and emission wavelengths of 485 and 538 nm respectively. […]

[2] = system: BALB3T3 murine fibroblasts stressed with H2O2; test: MTT with induced oxidative stress-BALB3T3; details: 50 μM, pretreatment, then 1 mM H2O2 90 min; non-stressed ctr = 100, Ctr + H2O2 = 58.43
Excerpt: MTT with Induced Oxidative Stress-BALB3T3
BALB3T3 mouse fibroblasts are one of the validated models for studies of oxidative stress in vitro (Subirade et al., 1995; Kutuk et al., 2004).
Studies conducted in 2005 by Rajapakse and coworkers (2005) highlighted the possibility of exploiting a highly used and versatile method such as that of the MTT assay for the in vitro study antioxidant activity of active compounds. Specifically, through this method it is possible to study the protective effects of these compounds on cells subsequently subjected to oxidative stress. The induction of oxidative stress is carried out by incubation with hydrogen peroxide, an agent that induces the production of oxidative damage in the cells through ROS formation. The possible protective effects can be determined through the assessment of cell viability after oxidative stress of the pre-treated/pre-exposed cells to the active compounds to be tested, in comparison with cells subjected to the same oxidative stress. […]
Once the oxidation stress induction phase was completed, the cell viability of the various samples was evaluated, according to the method described in point 4.1.2 (assay with MTT).
The data were expressed as a percentage of cell viability compared to non-stressed control cells (ctr), according to the following formula: % cell viability/ctr=(Sample Abs/ctr Abs)*100 […]

[3] = system: 5 alpha-reductase isoform 2 (SRD5A2); test: Gene expression of isoform 2 of 5 alpha-reductase (SRD5A2) in BALB3T3 cells by qRT-PCR; details: 0.05 mg/mL, 24 h, relative expression 2^-ΔΔCt vs β-actin, Ctr = 1
Experimental: Effects of Galeopsis segetum and Galeopsis tetrahit Study on the Activity of 5 Alpha-Reductase (Isoform 2)-BALB3T3
The gene expression of the isoform 2 of 5 alpha-reductase (SRD5A2) in BALB3T3 cells was evaluated by relative quantitative RT-PCR (quantitative reverse transcription polymerase chain reaction-qRT-PCR).
This analysis has foreseen 3 sequential phases: • Total RNA extraction; • Reverse transcription in cDNA; • qRT-PCR.
BALB3T3 murine fibroblasts were seeded in 12-well plates at a density of 0.5*10^6 cells/well and incubated until about 80% confluence was achieved.
Subsequently, the cells were incubated for 24 hours with Galeopsis segetum and Galeopsis tetrahit (vegetable biomass and dry hydro-alcoholic sample) at the following concentrations: 20-50 and 100 μg/ml. […]
At the end of the incubation with the active compounds of interest, cells were washed with PBS (1×) and finally subjected to the RNA extraction procedure. At the end of the extraction, using a spectrophotometer (Jenway UV/VIS MOD: 6715, BS-6715B0), the concentrations in μg/ml of total RNA extracted at the wavelength of 260 nm were calculated. Finally, the integrity of RNA (2 μg/ml) by electrophoretic run on 1% agarose gel was evaluated. […]
The extracted and quantified RNA was diluted to a concentration of 2 μg/ml and retro-transcripted in cDNA. […]
Assuming a 100% amplification efficiency, the 2^−ΔΔCt was calculated.

SMILES	% ROS [1] [%]	% cells viability [2] [%]	mRNA SERD5A2 [3]
Cc1c(C)c2c(c(C)c1O)CC[C@@](C)(CCC[C@H](C)CCC[C@H](C)CCCC(C)C)O2 [α-tocopherol]	39.67	78.37	
CC(C)(C)NC(=O)[C@H]1CC[C@H]2[C@@H]3CC[C@H]4NC(=O)C=C[C@]4(C)[C@H]3CC[C@]12C [finasteride]			0.31
